Results taken from the supplement of paper PMC4862054.

Tests used:
BT-474 [1] = assay: normalised viability (% of control), CellTiter-Blue; higher = more viable cells (about 100 = DMSO control); details: 100 nM; incubation time: 72 h
Method: (§1)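 DSRT, CellTiter-Blue viability, 72 h incubation. Signal is normalised to DMSO and benzethonium chloride controls. Value is the normalised response at dose 3.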

DU-4475 [2] = assay: as above; details: 10 nM; incubation time: 72 h
Method: as §1

HCC1599 [3] = assay: as above; details: 100 nM; incubation time: 72 h
Method: as §1

MDA-MB-453 [4] = assay: as above; details: 10 nM; incubation time: 72 h
Method: as §1

MFM-223 [5] = assay: as above; details: 100 nM; incubation time: 72 h
Method: as §1

SK-BR-3 [6] = assay: as above; details: 100 nM; incubation time: 72 h
Method: as §1

BT-474 [7] = assay: normalised viability (% of control), CellTiter-Blue; higher = more viable cells (about 100 = DMSO control); details: incubation time: 72 h
Method in brief: (§2)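 After 72 h on compound-loaded 384-well plates, breast cancer cell lines received 2.5 µl CellTiter-Blue reagent for 2 h at 37 °C. Fluorescence at 560/590 nm was scaled per plate so that vehicle was 100 and a positive kill control was 0. The value stands for normalised viability at a single listed concentration of the series.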

BT-549 = assay: as above; details: incubation time: 72 h
Method in brief: as §2

CAL-120 = assay: as above; details: incubation time: 72 h
Method in brief: as §2

CAL-148 = assay: as above; details: incubation time: 72 h
Method in brief: as §2

CAL-51 = assay: as above; details: incubation time: 72 h
Method in brief: as §2

CAL-85-1 = assay: as above; details: incubation time: 72 h
Method in brief: as §2

DU-4475 [8] = assay: as above; details: incubation time: 72 h
Method in brief: as §2

HCC1143 = assay: as above; details: incubation time: 72 h
Method in brief: as §2

HCC1599 [9] = assay: as above; details: incubation time: 72 h
Method in brief: as §2

HCC1937 = assay: as above; details: incubation time: 72 h
Method in brief: as §2

HDQ-P1 = assay: as above; details: incubation time: 72 h
Method in brief: as §2

Hs578T [10] = assay: as above; details: incubation time: 72 h
Method in brief: as §2

MDA-MB-231 = assay: as above; details: incubation time: 72 h
Method in brief: as §2

MDA-MB-436 = assay: as above; details: incubation time: 72 h
Method in brief: as §2

MDA-MB-453 [11] = assay: as above; details: incubation time: 72 h
Method in brief: as §2

MDA-MB-468 = assay: as above; details: incubation time: 72 h
Method in brief: as §2

MFM-223 [12] = assay: as above; details: incubation time: 72 h
Method in brief: as §2

SK-BR-3 [13] = assay: as above; details: incubation time: 72 h
Method in brief: as §2

Hs578T [14] = assay: drug sensitivity score (DSS), CellTox Green (DSS (AUC-based score)); higher = stronger drug effect (viability inhibition or cytotoxicity); extreme values may be limits of the assay; details: incubation time: 72 h
Method in brief: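 After 72 h of incubation in 384-well plates with compound at 5 concentrations (10-fold steps, 10,000-fold range set per compound), breast cancer cell lines seeded in 20 µl suspension were read first for CellTox Green fluorescence at 485/520 nm. CellTiter-Glo luminescence was measured next, after 10 min at room temperature. Normalisation on each plate used 0.1 % DMSO and a positive kill control, and the drug sensitivity score was computed from the area under the fitted dose-response curve.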

C=CC[C@@H]1/C=C(\C)C[C@H](C)C[C@H](OC)[C@H]2O[C@@](O)(C(=O)C(=O)N3CCCC[C@H]3C(=O)O[C@H](/C(C)=C/[C@@H]3CC[C@@H](O)[C@H](OC)C3)[C@H](C)[C@@H](O)CC1=O)[C@H](C)C[C@@H]2OC [Tacrolimus]
Details	drug sensitivity score	normalised viability [%]
BT-474 [1]	–	113
DU-4475 [2]	–	112
HCC1599 [3]	–	123
Hs578T [14]	0	–
MDA-MB-453 [4]	–	112
MFM-223 [5]	–	99.2
SK-BR-3 [6]	–	91.8

normalised viability [%]
Details	3 nM	10 nM	30 nM	100 nM	1000 nM	10000 nM
BT-474 [7]	–	125	–	–	108	114
BT-549	–	89.5	–	–	103	89.8
CAL-51	108	–	103	97.7	–	–
CAL-85-1	104	–	92.1	98.5	–	–
CAL-120	–	106	–	–	103	106
CAL-148	97.3	–	101	101	–	–
DU-4475 [8]	99.8	–	90.9	99.5	–	–
HCC1143	–	102	–	–	118	102
HCC1599 [9]	–	109	–	–	101	95.5
HCC1937	–	114	–	–	63.1	92.5
HDQ-P1	116	–	120	133	–	–
Hs578T [10]	–	104	–	–	103	87.8
MDA-MB-231	–	109	–	–	105	113
MDA-MB-436	–	116	–	–	104	108
MDA-MB-453 [11]	112	–	96.8	103	–	–
MDA-MB-468	–	106	–	–	118	125
MFM-223 [12]	–	112	–	–	109	87.6
SK-BR-3 [13]	–	93.5	–	–	105	108
